Laboratory results published in US7671181B2, “Polynucleotides encoding coccidian parasite casein kinase I, a chemotherapeutic target for antiprotozoal agents” (Merck Sharp & Dohme Corp., priority 2004, dated 2010).

Tests used:
[1] = molecular target: T1, rat CKIδ (Rattus norvegicus, UniProt Q06486); test: Casein kinase assay, recombinant rat CKIδ control enzyme; type: biochemical; details: read-out: IC50 against rodent CKIδ
T1 construct: purchased New England Biolabs
T1 sequence (Q06486 1-317 limits assumed): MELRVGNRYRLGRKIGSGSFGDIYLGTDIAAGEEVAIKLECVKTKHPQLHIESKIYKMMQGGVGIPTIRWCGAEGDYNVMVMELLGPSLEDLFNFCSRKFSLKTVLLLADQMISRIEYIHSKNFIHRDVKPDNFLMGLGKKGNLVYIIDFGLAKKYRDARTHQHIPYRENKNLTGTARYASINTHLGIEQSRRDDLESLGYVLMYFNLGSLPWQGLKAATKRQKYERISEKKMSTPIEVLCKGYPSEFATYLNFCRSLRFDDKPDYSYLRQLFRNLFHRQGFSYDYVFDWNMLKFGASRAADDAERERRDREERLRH
Experimental: (§1) Protein kinase assays—Casein kinase activity was assayed essentially as described (Donald, R. G. K. et al., 2002, supra) using 96-well phosphocellulose plates (MAPH-NOB, Millipore; Billerica, Mass.) to capture ^33P-phosphorylated peptide or casein substrates. Kinase reactions were carried out in 40 μl volumes containing 25 mM Hepes, pH 7.4, 10 mM MgCl2, 20 mM β-glycerophosphate, 1 mM DTT, 250 μM substrate, 1 mg/mL BSA, 2 μM ATP, and 0.01 μM [γ-^33P]ATP (Perkin-Elmer, 3000 Ci/mmol). The reactions were initiated by the addition of enzyme and incubated at room temperature for 60 min. Casein (5% solution), partially dephosphorylated α-casein and β-casein were obtained from Sigma.
Preparations of FLAGTgCKIα and FLAGTgCKIβ were purified further on a SMART system FPLC 0.1 mL MonoQ anion exchange column (Pharmacia; New York, N.Y.) equilibrated in buffer A (50 mM Hepes, pH 7.4, 10% glycerol, 1 mM DTT) at room temperature. Samples of FLAG-affinity purified enzyme (10-100 μg) were syringe-passed through a 0.22 μm (pore-size) filter before loading on the column. A linear salt gradient was applied (0-500 mM in 3 mL at 100 μl/min) and 100 μl fractions were collected and analyzed by SDS-PAGE and for CKI activity. Fractions with peak activity were retained for further analysis. The degree of purity of the partially purified FLAGTgCKIα was estimated by densitometry of silver stained SDS-PAGE gels. […]

[2] = molecular target: TgCKIα (Toxoplasma gondii, UniProt Q6QNM1); test: Casein kinase assay, TgCKIα (recombinant FLAGTgCKIα or partially purified native); type: biochemical; set-up: other: recombinant or native forms of TgCKIα
Experimental: as §1, with “The reactions were initiated by the addition of enzyme and incubated at room temperature for 60 min.” left out
(§2) A variety of commercially available peptide substrates were evaluated. From Calbiochem (San Diego, Calif.): CKI substrate (RRKDLHDDEEDEAMSITA; SEQ ID NO:13); CKII substrate (RRADDSDDDDD; SEQ ID NO:14); Syntide-2 substrate (PLARTLSVAGLPGKK; SEQ ID NO:15); CaM kinase II substrate (281-291) (MHKNETVECLK; SEQ ID NO:16). From Promega: CKI substrate (DDDEESITRR; SEQ ID NO:17) and kemptide (LRRASLG; SEQ ID NO:18). From New England Biolabs (Beverly, Mass.): CKI phosphopeptide substrate (KRRRALS(p)VASLPGL; SEQ ID NO:19), and CKII substrate (RRREEETEEE; SEQ ID NO:20). PKG assays were performed with kemptide as substrate and 10 μM cGMP. CDPK was assayed with Syntide-2 substrate and in the presence of 100 μM CaCl2.
(§3) Purification of recombinant CKI enzymes—E. coli strain BL21 Origami™ (Novagen) was transformed with FLAGTgCKIα and FLAGTgCKIβ expression vectors, and colonies were expanded into 250 mL LB cultures grown at 37° C. […] Protein was measured with a micro-BCA reagent (Pierce) following a TCA-sodium deoxycholate step to remove residual FLAG peptide (Brown et al., 1989, Anal. Biochem. 180:136-139). […]
Preparations of FLAGTgCKIα and FLAGTgCKIβ were purified further on a SMART system FPLC 0.1 mL MonoQ anion exchange column (Pharmacia; New York, N.Y.) equilibrated in buffer A (50 mM Hepes, pH 7.4, 10% glycerol, 1 mM DTT) at room temperature. […] A linear salt gradient was applied (0-500 mM in 3 mL at 100 μl/min) and 100 μl fractions were collected and analyzed by SDS-PAGE and for CKI activity. […]

[3] = molecular target: TgCKIβ (Toxoplasma gondii, UniProt Q6QNM0); test: Casein kinase assay, recombinant FLAGTgCKIβ; type: biochemical; details: recombinant enzyme; read-out: IC50 against TgCKIβ
Experimental: as §1, with “The reactions were initiated by the addition of enzyme and incubated at room temperature for 60 min.” left out
as §2
Purification of recombinant CKI enzymes—E. coli strain BL21 Origami™ (Novagen) was transformed with FLAGTgCKIα and FLAGTgCKIβ expression vectors, and colonies were expanded into 250 mL LB cultures grown at 37° C. Expression was induced with 1 mM IPTG once cultures had reached an OD600nm of 0.3-0.5, and the transformed bacteria were harvested 4-6 hours later. Cell pellets were resuspended in 15 mL of lysis buffer containing protease inhibitors and lysates prepared as described by the supplier (Bugbuster™ reagents, Novagen). The concentration of NaCl in the lysate was adjusted to 0.5 M, and 0.5 mL of FLAG-agarose beads were added (Sigma). The mixture was allowed to rock in a Nutator mixer (Becton-Dickinson; San Jose, Calif.) for 2 hours at 4° C. The slurry was then poured into an empty column and the matrix washed with 50 mL of wash buffer (50 mM Tris-HCl, pH 7.4, 0.5M NaCl, 10% glycerol, 1 mM DTT, 1 mM EDTA). Enzyme was eluted with 5 mL of 0.4 mg/mL FLAG peptide (Sigma) in NaCl-free wash buffer and concentrated with a centrifuge filtration unit (Amicon Ultra®, 10 kDa cut-off, Millipore). Protein was measured with a micro-BCA reagent (Pierce) following a TCA-sodium deoxycholate step to remove residual FLAG peptide (Brown et al., 1989, Anal. Biochem. 180:136-139). Using this procedure, and SDS-PAGE analysis, the yield of FLAGTgCKIβ was estimated as ˜200 μg of enzyme with >90% purity. Purification of FLAGTgCKIα was much less efficient with only about 1 μg of ˜10% pure enzyme obtained per 250 mL bacterial culture.
Preparations of FLAGTgCKIα and FLAGTgCKIβ were purified further on a SMART system FPLC 0.1 mL MonoQ anion exchange column (Pharmacia; New York, N.Y.) equilibrated in buffer A (50 mM Hepes, pH 7.4, 10% glycerol, 1 mM DTT) at room temperature. Samples of FLAG-affinity purified enzyme (10-100 μg) were syringe-passed through a 0.22 μm (pore-size) filter before loading on the column. A linear salt gradient was applied (0-500 mM in 3 mL at 100 μl/min) and 100 μl fractions were collected and analyzed by SDS-PAGE and for CKI activity. Fractions with peak activity were retained for further analysis. The degree of purity of the partially purified FLAGTgCKIα was estimated by densitometry of silver stained SDS-PAGE gels. A recombinant rat CKIδ enzyme used for control purposes was obtained from New England Biolabs.

[4] = test system: T. gondii PKG, CKIα and -β, and CDPK1; native E. tenella CKIα; test: Protein kinase assays, the parasite kinases tested (Table 2 panel); type: biochemical
Experimental: as §1, §2

[5] = test system: T. gondii tachyzoites; test: [3H]-uracil uptake assay of parasite growth inhibition in infected HFF cell monolayers; type: cell-based, Toxoplasma gondii
Source text: Host cells and parasite cultures—RH strain or RH ΔHXGPRT strain tachyzoites of T. gondii were maintained by serial passage in confluent monolayers of human foreskin fibroblasts (“HFF”) as described (Roos, D. S. et al., 1994, Methods Cell Biol. 45:27-63). A modified [^3H]-uracil uptake assay (Pfefferkorn, E. R. and Pfefferkorn, L. C., 1977, J. Protozool. 24:449-453) adapted for use in 96-well scintillation plates (Cytostar-T, Amersham; Piscataway, N.J.) was used to measure parasite growth inhibition. Each well, previously seeded with HFF cells, was inoculated with T. gondii tachyzoites (2×10^4) in 200 μl of growth media containing 2 μCi [5,6]-^3H-uracil (Perkin-Elmer NEN; Boston, Mass.) and serially diluted compound. Following incubation at 37° C. for 36-48 hours, tritium-incorporation into host cell monolayers was directly counted in a microplate scintillation counter (MicroBeta, PerkinElmer-Wallac).

[6] = molecular target: mammalian CDK1 (Homo sapiens, UniProt P06493); details: Knockaert et al., 2002; cited from earlier work
[7] = molecular target: mammalian CDK5 (Homo sapiens, UniProt Q00535); details: Knockaert et al., 2002; cited from earlier work
[8] = test system: CC(C)C[C@H](NC(=O)CNC(=O)[C@@H]1CCCN1C(=O)[C@H](CC(C)C)NC(=O)[C@H](CO)NC(=O)[C@H](C)NC(=O)[C@@H](NC(=O)[C@H](COP(=O)(O)O)NC(=O)[C@H](CC(C)C)NC(=O)[C@H](C)NC(=O)[C@H](CCCNC(=N)N)NC(=O)[C@H](CCCNC(=N)N)NC(=O)[C@H](CCCNC(=N)N)NC(=O)[C@@H](N)CCCCN)C(C)C)C(=O)O; test: Casein kinase assay, TgCKIα (recombinant FLAGTgCKIα or partially purified native); type: biochemical; details: other: substrate titration, 2 μM ATP; pH 7.4; 37.0 °C
Experimental: as §1, with “The reactions were initiated by the addition of enzyme and incubated at room temperature for 60 min.” left out
(§4) A variety of commercially available peptide substrates were evaluated. From Calbiochem (San Diego, Calif.): CKI substrate (RRKDLHDDEEDEAMSITA; SEQ ID NO:13); CKII substrate (RRADDSDDDDD; SEQ ID NO:14); Syntide-2 substrate (PLARTLSVAGLPGKK; SEQ ID NO:15); CaM kinase II substrate (281-291) (MHKNETVECLK; SEQ ID NO:16). From Promega: CKI substrate (DDDEESITRR; SEQ ID NO:17) and kemptide (LRRASLG; SEQ ID NO:18). […]
as §3

[9] = substrate: CC(C)C[C@H](NC(=O)CNC(=O)[C@@H]1CCCN1C(=O)[C@H](CC(C)C)NC(=O)[C@H](CO)NC(=O)[C@H](C)NC(=O)[C@@H](NC(=O)[C@H](COP(=O)(O)O)NC(=O)[C@H](CC(C)C)NC(=O)[C@H](C)NC(=O)[C@H](CCCNC(=N)N)NC(=O)[C@H](CCCNC(=N)N)NC(=O)[C@H](CCCNC(=N)N)NC(=O)[C@@H](N)CCCCN)C(C)C)C(=O)O; test: Casein kinase assay, recombinant FLAGTgCKIβ; type: biochemical; details: other: substrate titration, 2 μM ATP; pH 7.4; 37.0 °C
Experimental: as §1, with “The reactions were initiated by the addition of enzyme and incubated at room temperature for 60 min.” left out
as §4, §3

TgCKIα, sequence (Q6QNM1 whole entry, looked up): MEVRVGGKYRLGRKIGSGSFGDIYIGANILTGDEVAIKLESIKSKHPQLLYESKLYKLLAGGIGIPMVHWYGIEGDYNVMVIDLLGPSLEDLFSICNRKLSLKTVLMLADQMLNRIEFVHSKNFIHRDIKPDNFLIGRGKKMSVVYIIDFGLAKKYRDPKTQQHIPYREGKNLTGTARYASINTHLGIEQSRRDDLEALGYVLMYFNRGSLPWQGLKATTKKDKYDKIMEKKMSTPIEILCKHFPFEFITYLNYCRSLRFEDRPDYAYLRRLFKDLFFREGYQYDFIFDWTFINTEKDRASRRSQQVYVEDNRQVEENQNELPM
mammalian CDK1, sequence (P06493 whole entry): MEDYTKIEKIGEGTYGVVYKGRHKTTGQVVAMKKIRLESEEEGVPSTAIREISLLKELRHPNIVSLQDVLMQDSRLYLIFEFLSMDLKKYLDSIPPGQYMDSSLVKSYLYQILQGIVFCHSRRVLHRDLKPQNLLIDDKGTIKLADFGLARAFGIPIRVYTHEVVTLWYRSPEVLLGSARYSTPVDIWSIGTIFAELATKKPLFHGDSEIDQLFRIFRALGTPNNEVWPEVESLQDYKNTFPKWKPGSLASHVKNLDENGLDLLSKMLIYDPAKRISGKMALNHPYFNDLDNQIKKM
mammalian CDK1, sequence (P14635 whole entry partner): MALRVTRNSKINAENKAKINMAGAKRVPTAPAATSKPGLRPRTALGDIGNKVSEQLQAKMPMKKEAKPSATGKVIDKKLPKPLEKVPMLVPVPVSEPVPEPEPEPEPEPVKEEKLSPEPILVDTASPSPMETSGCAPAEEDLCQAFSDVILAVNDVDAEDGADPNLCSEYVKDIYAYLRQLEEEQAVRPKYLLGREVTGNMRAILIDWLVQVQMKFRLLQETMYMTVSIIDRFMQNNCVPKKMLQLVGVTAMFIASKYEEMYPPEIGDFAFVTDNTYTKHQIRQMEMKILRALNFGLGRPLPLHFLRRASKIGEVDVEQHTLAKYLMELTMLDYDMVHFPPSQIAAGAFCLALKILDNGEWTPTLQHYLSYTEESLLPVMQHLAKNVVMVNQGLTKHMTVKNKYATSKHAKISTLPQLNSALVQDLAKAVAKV
mammalian CDK5, sequence (Q00535 whole entry): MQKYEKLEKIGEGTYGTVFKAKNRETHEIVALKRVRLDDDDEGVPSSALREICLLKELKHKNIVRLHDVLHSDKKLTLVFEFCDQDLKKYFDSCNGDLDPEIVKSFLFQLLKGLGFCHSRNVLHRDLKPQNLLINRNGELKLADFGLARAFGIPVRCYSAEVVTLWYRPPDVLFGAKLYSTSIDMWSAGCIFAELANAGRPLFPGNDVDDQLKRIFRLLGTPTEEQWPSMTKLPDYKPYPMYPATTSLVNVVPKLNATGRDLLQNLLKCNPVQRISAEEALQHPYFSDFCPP
mammalian CDK5, sequence (Q15078 99-307 partner limits assumed): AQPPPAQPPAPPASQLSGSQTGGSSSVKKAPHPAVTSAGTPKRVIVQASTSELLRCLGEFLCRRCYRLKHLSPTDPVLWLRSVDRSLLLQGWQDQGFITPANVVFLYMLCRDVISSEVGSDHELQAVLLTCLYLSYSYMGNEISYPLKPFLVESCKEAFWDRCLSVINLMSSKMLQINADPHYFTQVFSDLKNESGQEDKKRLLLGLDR

`NC1=NC(=O)/C(=C2\CCNC(=O)c3[nH]c(Br)cc32)N1` [Hymenialdisine] gave an IC50 [1] of 60 nM, an IC50 [2] of 7 to 10 nM and an IC50 [3] of 7 to 10 nM.

In the case of `O=C1Cc2c([nH]c3ccc([N+](=O)[O-])cc23)-c2ccccc2N1` [alsterpaullone], the “activity against the parasite kinases tested” value [4] is listed as “Neither kenpaullone nor alsterpaullone showed any activity”, the IC50 ([5]; Toxoplasma gondii, infected HFF cell monolayers, read-out: IC50, antiparasitic activity in the whole cell assay) is listed as 1200 nM and the “potency against mammalian CDK1 relative to kenpaullone” value [6] is listed as “at least 10 fold”. The “potency against mammalian CDK5 relative to kenpaullone” value [7] was “at least 10 fold”.

With `O=C1Cc2c([nH]c3ccc(Br)cc23)-c2ccccc2N1` [kenpaullone] the “activity against the parasite kinases tested” value [4] was “Neither kenpaullone nor alsterpaullone showed any activity” and the “activity against cultured T. gondii parasites” value ([5]; uracil uptake / whole cell assay) was “inactive”.

With TgCKIα (Toxoplasma gondii) the Vmax [8] was 26 nmol/min/mg.

B1: TgCKIβ (Toxoplasma gondii) (protein)
chain: MAHHQDTRNHTGVGPSSSIPLKDLKIAGVWKIGRKIGSGSFGDIYKGLNSQTGQEVALKVESTKAKHPQLLYEYKLLKHLQGGTGIAQVFCCETAGDHNIMAMELLGPSLEDVFNLCNRTFSLKTILLLADQFLQRVEYIHSKNFIHRDIKPDNFLLGGAGNQNTIYVIDFGLAKKFRDPKTHQHIPYRENKNLTGTARYASISAHLGSEQSRRDDLEAVGYVLMYFCRGGTLPWQGIKANTKQEKYHKIMEKKMSTPVEVLCKGYPSEFATYLHYCRSLRFEDRPDYAYLKRLFRDLYIKEGYDDSDREFDWTVKLSSRSLGPPSSRAQHVLLSQDTRTRGKRETDRPVAARSGDRERGIHFSNGNVGNPSMATNPGGLSVMVHERTSLVDQGDRGSRETSTRKEDAKDGRWPGGRFSCLPLLCRRSPTKA
B1 gave a Km [9] of 79 µM and a Vmax [9] of 37 nmol/min/mg.
